The source of these data is patent publication US20250263437A1, “POLYPEPTIDE FOR REPAIRING SKIN WOUND OR MUCOSAL INJURY, AND APPLICATION THEREOF” (Sichuan Gooddoctor Panxi Pharmaceutical Co., Ltd., priority 2021, published 2025).

Experiment [1] concerns ethanol-induced gastric ulcer model in mice. Put plainly: Anti-ulcer effect on ethanol-induced gastric ulcer model in mice. The format is in vivo. The conditions noted are these: single administration; ulcer inhibition rate of test compound / ulcer inhibition rate of Compound 1. The procedure:
Experimental animals: Six-week old C57BL/6JGPt male mice, weighing about 20 g/mouse, were selected, with 10 mice in each group, from GemPharmatech (Chengdu) Co., Ltd., animal license number: SCXK (Chuan) 2020-034. After the experimental animals were divided into groups, they were dosed according to Table 5 one day before the experiment. Among the groups, the model group was given 200 μl of pure water, and the other dose groups were given 200 μl of drug solution. After that, all the animals were fasted for 24 h with free access to water. The next day, 1 h after administration, the mice in each group were given 9 μl/g of absolute ethanol by oral gavage for modeling. After 1 h, the animals were sacrificed by cervical dislocation, the gastric cardia was ligated, the pylorus was occluded, and the whole stomach was removed. 1 mL of 1% formaldehyde solution was injected into the gastric lumen via the glandular stomach, the cardia was ligated, and the stomach was taken out and immediately immersed in 1% formaldehyde solution. After soaking for 30 min, the stomach tissue was taken out and cut open along the greater curvature. The content of the stomach was rinsed off with normal saline, the injury of the gastric mucosa in the mice were observed and measured after being laid flat, and the ulcer index and ulcer inhibition rate were calculated; panoramic photos of the stomach were taken; and finally, the gastric tissue sample was immersed in formalin and fixed. Calculation method for ulcer index: If the length of cord-like injury was greater than 1 mm, the length thereof was measured, with 1 point per millimeter; if the width thereof was greater than 1 mm, the score thereof was doubled according to the number of millimeters of the width; and if the length was less than 1 mm, a score of 0.5 was given, and the scores were added up to obtain the ulcer index of the animal. Method of data statistics: the ulcer index was expressed as mean±standard deviation; the ulcer inhibition rate was calculated by using the median value and mean value of the ulcer index in each dosage group and simulation group; and the data were statistically analyzed by means of Excel, and the difference data of the gastric ulcer index were statistically analyzed by means of independent sample T test.

The test system of experiment [2] is acute mechanical skin injury in rats. Put plainly: Healing effect on acute mechanical skin injury in rats. It counts as in vivo. To be noted: for promoting wound healing (in words): 40 μg/cm^2; for wound healing rate, 5 days / wound healing rate, 10 days / wound healing rate, 14 days: polypeptide 40 μg/cm^2, Jinyintai 40 IU/cm^2, topical once daily, in % (unit assumed). The procedure: SPF grade SD rats, weighing 180-230 g, were raised in respective clean sterilized cages, with water, feed and padding replacement given regularly every day. The feeding temperature was kept at 22° C. and the humidity was 55-65%. They were raised for one week for acclimatization. According to a random grouping method, the animals were divided into a model control group (normal saline), a Jinyintai control group (40 IU/cm^2, Shenzhen Watsin Genetech Ltd.) and a test polypeptide treatment group (40 μg/cm^2), with 6 animals in each group. After the rats were successfully anesthetized by intraperitoneal injection of 3% pentobarbital sodium, the hair within 1 cm around the edge of the wound was cut off, and the wound area was disinfected first with iodophor and then with 75% alcohol locally. A round full-thickness skin wound of 1.5 cm×1.5 cm (i.e., 1.5 cm in diameter) was made near the neck at 4 cm down to the back from the middle of the connecting line of the ears, with the spine as the midline. It went deep into the muscle layer, forming an animal model of acute mechanical injury. After modeling, the rats were raised in individual cages with the wounds exposed. During dressing replacement, the rats were all first debrided with iodophor, and then, the wound was washed with sterile normal saline and wiped dry. Except the model group, the wounds of the rats in the other groups were locally coated with 40 μL of the corresponding drug solution once daily. On days 0, 5, 10 and 14 of administration, the wound images of the rats in each group were taken, and the wound area was calculated by means of an image analysis software (Image J). According to the formula, the wound healing rate was obtained.

Experiment [3] has as its system HaCaT cells. Put plainly: Proliferation of HaCaT cells (CCK8). The conditions noted are these: 0.2-0.8 μg/mL; 24 h, 48 h and 72 h; 1% serum. The format is cell-based, human. The procedure:
Experimental method: Immortalized human keratinocytes (HaCaT cells) was adjusted to a concentration of 1.0×10^5 to 5.0×10^5/mL for passaging, and they were cultured at 37° C. and 5% CO2 for 24-36 h for biological activity detection. The cells were digested with 0.25% trypsin for 5 min, 1640 whole blood culture medium, the volume of which was not less than 1 time of the volume of the trypsin, was added to stop digestion, a cell suspension was collected, centrifuged at 1000 RPM for 3 min, the supernatant was discarded, 2 mL of 1640 whole blood culture medium was added to suspend the cells, 20 μL of the cell suspension was taken and stained with AOPI, the concentration of cells in the suspension was then detected by a cell counter, the suspension was prepared to a concentration of 5×10^4/mL with 1640 culture medium containing serum at a concentration of 10% and inoculated into a 96-well cell culture plate, with 100 μL per well, i.e., 5000 cells/well, and the plate was cultured at 37° C. and 5% CO2 overnight.
After 24 h, the original culture medium was discarded, and 100 μL of polypeptide compound solutions with different concentrations prepared with 1640 culture medium containing serum at a concentration of 1% were added, such that the final concentrations of the polypeptide compounds to be tested were 0.2, 0.4 and 0.8 ug/mL, respectively. In addition, an EGF control group was prepared by adding 100 μL of a recombinant human epidermal growth factor (EGF) solution prepared with 1640 culture medium containing serum at a concentration of 1%, with the final concentration being 100 ng/ml. In the model control group, an equal volume of 1640 culture medium containing serum at a concentration of 1% was added. After culturing at 37° C. and 5% CO2 for 24 h, 48 h and 72 h, the proliferation of the HaCaT cell line was detected by means of CCK8 kit.

Experiment [4] concerns RSC96 cells. The experiment is described as follows: Proliferation of RSC96 cells (CCK-8). The conditions noted are these: 0.2, 0.4 and 0.8 ug/ml; 48 h; 0% serum. The format is cell-based. The procedure:
Glial cells (RSC96 cells) were adjusted to a concentration of 1.0×10^5 to 5.0×10^5/mL for passaging and cultured at 37° C. and 5% CO2 for 24-36 h for biological activity detection. The cells were digested by trypsin, collected, prepared to a concentration of 5×10^4/mL with a serum-free medium, inoculated into a 96-well cell culture plate, with 100 μL per well, i.e., 5000 cells/well, and cultured overnight at 37° C. and 5% CO2. The polypeptide compound of the present invention was prepared to test concentrations (0.2 ug/ml, 0.4 ug/ml, and 0.8 ug/ml) with 0% serum culture medium as experimental groups, and an equal amount of 0% serum drug-free culture medium was added to the control group. They were added to 4 duplicate wells, and the resultants were incubated at 37° C. and 5% CO2 for 48 h. Detection of the proliferation of cells using CCK-8: the old culture medium was removed, and a serum-free medium containing 10% CCK-8 was added to each well. After incubation in an incubator for 2 h, the absorbance at 450 nm was measured by a microplate reader.

“Also recorded” adds a separate entry of the source. Where no end group is shown, it is not given here.

In the case of VDAAVLEKLE [Compound 67], the “Anti-ulcer activity (mean relative ulcer inhibition rate)” value in experiment [1] was determined as 0.24. Moreover, in experiment [2], the “promoting wound healing (in words)” value was “trend of promoting wound healing”; the “wound healing rate, 5 days” value was determined as 30.40 ± 3.35; the “wound healing rate, 10 days” value was found to be 61.42 ± 5.73; the “wound healing rate, 14 days” value was 90.87 ± 3.94. Also, the “effect on proliferation of HaCaT cells” value in experiment [3] was “proliferation-promoting effects”. For the same sequence, the “effect on proliferation of RSC96 cells” value in experiment [4] is given as “proliferation-promoting effect”.
In the case of SMQASLEAEAKGKAE [Compound 1], the “Anti-ulcer activity (mean relative ulcer inhibition rate)” value in experiment [1] came out at 1.00. Besides, in experiment [2], the “promoting wound healing (in words)” value is reported as “trend of promoting wound healing”; the “wound healing rate, 5 days” value stood at 31.68 ± 3.48; the “wound healing rate, 10 days” value was found to be 63.20 ± 3.87; the “wound healing rate, 14 days” value was found to be 91.43 ± 2.87. Moreover, the “effect on proliferation of HaCaT cells” value in experiment [3] is recorded as “proliferation-promoting effect”. For the same sequence, in experiment [4], the “effect on proliferation of RSC96 cells” value is “significant proliferation promoting effects; also recorded: proliferation-promoting effect”.
As for AAVLDKLE [Compound 68], the “Anti-ulcer activity (mean relative ulcer inhibition rate)” value in experiment [1] amounted to 0.85. In experiment [2], the “promoting wound healing (in words)” value is “trend of promoting wound healing”; the “wound healing rate, 5 days” value is reported as 29.26 ± 6.46; the “wound healing rate, 10 days” value worked out at 60.97 ± 2.87; the “wound healing rate, 14 days” value turned out to be 88.42 ± 4.79. In experiment [3], the “effect on proliferation of HaCaT cells” value is listed as “proliferation-promoting effect”. In experiment [4], the “effect on proliferation of RSC96 cells” value is “significant proliferation promoting effects”.
